A short description of experiment [1]: Cytotoxicity against human 22Rv1 cells harboring AR H874Y mutant assessed as decrease in cell viability after 72 hrs by MTT assay. Format: functional, cell-based, CWR22R. Conditions: 22Rv1, 72 h.
A short description of experiment [2]: Cytotoxicity against human C4-2B cells harboring AR T877A mutant assessed as decrease in cell viability after 72 hrs by MTT assay. Format: functional, cell-based. The note with it: LNCaP C4-2B.
Experiment [3] in a line: Cytotoxicity against human PC3 cells assessed as decrease in cell viability after 72 hrs by MTT assay. Type of experiment: functional, cell-based. Conditions: PC-3, 72 h.
Experiment [4] in a line: Cytotoxicity against human LNCAP cells harboring AR T877A mutant assessed as decrease in cell viability after 72 hrs by MTT assay. Type of experiment: functional, cell-based.
Experiment [5] can be described thus: Cytotoxicity against human MDA PCa 2b cells harboring AR T877A/L701H double mutant assessed as decrease in cell viability after 72 hrs by MTT assay. Type of experiment: functional, cell-based.
The nature of experiment [6]: Growth inhibition of human SGC7901 cells at 100 uM after 8 days by MTT assay relative to control. The note with it: SGC-7901, 192 h, read-out: GI. Format: functional.
A short description of experiment [7]: Growth inhibition of human MDA-MB-435 cells after 7 days relative to control. Type of experiment: functional, cell-based. The note with it: MDA-MB-435, 168 h.
Experiment [8] deals with Rattus norvegicus. The experiment can be described thus: Antitumor activity against DMBA-induced mammary carcinogenesis in Sprague-Dawley rat assessed as inhibition of tumor formation at 18 mmol/kg administered with AIN-76A diet treated 2 weeks prior to DMBA addition for 24 weeks by hematoxylin and eosin staining based microscopic analysis relative to DMBA treated control. Format: functional.

Experiment [9] in a line: Antiproliferative activity against human SGC7901 cells. Format: functional, cell-based. Conditions: SGC-7901.
The nature of experiment [10]: Growth inhibition of human SGC7901 cells after 24 to 48 hrs by MTT assay. Format: functional, cell-based. Conditions: SGC-7901.
Experiment [11] is described as follows: Antiproliferative activity against human PC3 cells after 72 hrs by flow cytometry. Type of experiment: functional, cell-based. The note with it: PC-3, 72 h.
Experiment [12] relates to Rattus norvegicus. The experiment can be described thus: Antitumor activity against DMBA-induced mammary carcinogenesis in Sprague-Dawley rat assessed as tumor incidence at 36 mmol/kg administered with AIN-76A diet treated 2 weeks prior to DMBA addition for 24 weeks by hematoxylin and eosin staining based microscopic analysis (reference value: 82.1%). Format: functional.

Experiment [13] is described as follows: Growth inhibition of human MDA-MB-435 cells at 200 uM after 7 days relative to control. Type of experiment: functional. Conditions: MDA-MB-435, 168 h, read-out: GI.
The nature of experiment [14]: Growth inhibition of human SGC7901 cells at 50 uM after 8 days by MTT assay relative to control. Type of experiment: functional. The note with it: SGC-7901, 192 h, read-out: GI.
Experiment [15] can be described thus: Growth inhibition of human SGC7901 cells at 100 uM after 24 to 48 hrs by MTT assay relative to control. Format: functional. Conditions: SGC-7901, read-out: GI.
Experiment [16] in a line: Antiproliferative activity against human MCF7 cells. Type of experiment: functional, cell-based.
Experiment [17] in a line: Antiproliferative activity against human LNCAP cells after 72 hrs by flow cytometry. Format: functional, cell-based.
Experiment [18] in a line: Growth inhibition of human SGC7901 cells at 25 uM after 24 to 48 hrs by MTT assay relative to control. Type of experiment: functional. The note with it: SGC-7901, read-out: GI.
Experiment [19] can be described thus: Growth inhibition of human MDA-MB-435 cells at 100 uM after 7 days relative to control. The note with it: MDA-MB-435, 168 h, read-out: GI. Type of experiment: functional.
Experiment [20] is described as follows: Growth inhibition of human SGC7901 cells at 25 uM after 8 days by MTT assay relative to control. Format: functional. The note with it: SGC-7901, 192 h, read-out: GI.
In experiment [21] the test system is Rattus norvegicus. Kind of experiment: Antitumor activity against DMBA-induced mammary carcinogenesis in Sprague-Dawley rat assessed as tumor incidence at 9 mmol/kg administered with AIN-76A diet treated 2 weeks prior to DMBA addition for 24 weeks by hematoxylin and eosin staining based microscopic analysis (reference value: 82.1%). Format: functional.
A short description of experiment [22]: Growth inhibition of human SGC7901 cells at 200 uM after 8 days by MTT assay relative to control. Format: functional. The note with it: SGC-7901, 192 h, read-out: GI.
In experiment [23] the test system is MDA-MB-435. The experiment can be described thus: Inhibition of cell mitosis in human MDA-MB-435 cells after 48 hrs relative to control. Format: functional.
The subject of experiment [24] is MDA-MB-435. The experiment can be described thus: Induction of apoptosis in human MDA-MB-435 cells assessed as inhibition of DNA synthesis after 48 hrs relative to control. Format: functional.
Experiment [25] in a line: Growth inhibition of human SGC7901 cells at 50 uM after 24 to 48 hrs by MTT assay relative to control. Conditions: SGC-7901, read-out: GI. Type of experiment: functional.
Experiment [26] can be described thus: Growth inhibition of human SGC7901 cells at 200 uM after 24 to 48 hrs by MTT assay relative to control. Format: functional. Conditions: SGC-7901, read-out: GI.
Experiment [27] deals with MDA-MB-435. The experiment can be described thus: Inhibition of clone formation in human MDA-MB-435 cells after 48 hrs relative to control. Type of experiment: functional.
For experiment [28], the system named is Rattus norvegicus. Kind of experiment: Antitumor activity against DMBA-induced mammary carcinogenesis in Sprague-Dawley rat assessed as inhibition of tumor formation at 9 mmol/kg administered with AIN-76A diet treated 2 weeks prior to DMBA addition for 24 weeks by hematoxylin and eosin staining based microscopic analysis relative to DMBA treated control. Format: functional.

Experiment [29] is described as follows: Growth inhibition of human MDA-MB-435 cells at 25 uM after 7 days relative to control. Conditions: MDA-MB-435, 168 h, read-out: GI. Format: functional.
The subject of experiment [30] is MCF7. Kind of experiment: Induction of apoptosis in human MCF7 cells assessed as inhibition of DNA synthesis at 48 hrs relative to control. Type of experiment: functional.
Experiment [31] is described as follows: Antiproliferative activity against human DU145 cells after 72 hrs by flow cytometry. Format: functional, cell-based. The note with it: DU-145, 72 h.
Experiment [32] concerns Rattus norvegicus. Kind of experiment: Antitumor activity against DMBA-induced mammary carcinogenesis in Sprague-Dawley rat assessed as inhibition of tumor formation at 36 mmol/kg administered with AIN-76A diet treated 2 weeks prior to DMBA addition for 24 weeks by hematoxylin and eosin staining based microscopic analysis relative to DMBA treated control. Format: functional.

A short description of experiment [33]: Growth inhibition of human MDA-MB-435 cells at 50 uM after 7 days relative to control. The note with it: MDA-MB-435, 168 h, read-out: GI. Format: functional.
Experiment [34] deals with Rattus norvegicus. The experiment can be described thus: Antitumor activity against DMBA-induced mammary carcinogenesis in Sprague-Dawley rat assessed as tumor incidence at 18 mmol/kg administered with AIN-76A diet treated 2 weeks prior to DMBA addition for 24 weeks by hematoxylin and eosin staining based microscopic analysis (reference value: 82.1%). Type of experiment: functional.

Experiment [35] relates to MCF7. The experiment can be described thus: Inhibition of cell mitosis in human MCF7 cells after 48 hrs relative to control. Type of experiment: functional.
Experiment [36] is described as follows: Cytotoxicity against human DU145 cells assessed as decrease in cell viability after 72 hrs by MTT assay. Conditions: DU-145, 72 h. Type of experiment: functional, cell-based.

The structures appear in SMILES notation.

With `CC1=C(/C=C/C(=O)/C=C/c2csc3ccccc23)C(C)(C)CCC1O` (stereo not given), the IC50 in [1], in experiment [2], in experiment [3], in experiment [4] and in experiment [5] was 0.57 to 2 µM in each case.
As to `CC(=O)/C=C/C1=C(C)CCCC1(C)C` [BETA-IONONE], the inhibition of growth at 100 µM was found to be 74.4% in experiment [6], 78.2% in experiment [15] and 81.5% in experiment [19]. Moreover, the concentration for half-maximal inhibition (IC50) in experiment [7] came out at 42 µM; in experiment [9], 175 µM; in experiment [10], 89 µM; in experiment [11] it was 130 µM; in experiment [16] it was 104 µM; in [17], 130 µM. The compound further gave a half-inhibitory concentration (IC50) in [31] of 210 µM. Besides, the inhibition in vivo at 18000 µmol/kg in experiment [8] was found to be 68.3%. Further, the Activity in [12] is reported as 10%; in [21], 53.3%; in experiment [34], 25.9%. Moreover, the inhibition of growth at 200 µM in experiment [13] is 84.9%; in experiment [22] it was 90.1%; in [26], 94.2%. For the same compound, the inhibition of growth at 50 µM was 28.2% in experiment [14], 30.6% in experiment [25] and 71.2% in experiment [33]. Moreover, the values for the inhibition of growth at 25 µM in experiment [18], in experiment [20] and in experiment [29] were 12%, 25.9% and 45.6%, respectively. Moreover, the “inhibition (INH)” value is listed as 75.12% in experiment [23]; 78.35% in [24]; 95.55% in experiment [27]; 35.1 - 81.89% in [30]; 87.79% in [35]. For the same compound, in experiment [28], the inhibition in vivo at 9000 µmol/kg stood at 35.4%. In [32], the inhibition in vivo at 36000 µmol/kg stood at 87.8%.
With `COc1cc(/C=C(\C(=O)/C=C/C2=C(C)C(O)CCC2(C)C)C(=O)/C=C/c2ccc(O)c(OC)c2)ccc1O` (stereo not given), the IC50 in [1], in experiment [36], in [2], in [3] and in experiment [4] was 1.2 to 5.6 µM each time.

The values are drawn from ChEMBL document CHEMBL3871262, “β-Ionone and its analogs as promising anticancer agents” (Eur J Med Chem, 2016).
